Reference: ChEMBL document CHEMBL3045762, “Studies on arylfuran derivatives. Part XI. Synthesis, characterisation and biological studies on some Mannich bases carrying 2,4-dichlorophenylfurfural moiety” (2000)
The source made the active and inactive calls. No cut-off for these calls is given here.

How the values were obtained:
Plasmopara viticola = assay: Antifungal activity against Plasmopara viticola assessed as infection (reference value: 100%); type: functional
Digitaria sanguinalis [1] = assay: Pre-emergence herbicidal activity against Digitaria sanguinalis (hairy crabgrass) assessed as reduction of seed germination at 1000 ppm after 7 to 21 days by pot test; type: functional, organism-based
Cynodon dactylon [2] = assay: Post-emergence herbicidal activity against Cynodon dactylon assessed as reduction of seed germination at 1000 ppm after 5 to 25 days by pot test; type: functional, organism-based
Euphorbia hirta [3] = assay: Post-emergence herbicidal activity against Euphorbia hirta assessed as reduction of seed germination at 1000 ppm after 5 to 25 days by pot test; type: functional, organism-based
Amaranthus viridis [4] = assay: Post-emergence herbicidal activity against Amaranthus viridis assessed as reduction of seed germination at 1000 ppm after 5 to 25 days by pot test; type: functional, organism-based
Alternaria solani = assay: Antifungal activity against Alternaria solani assessed as fungal growth (reference value: 52 mm); type: functional
Amaranthus viridis [5] = assay: Pre-emergence herbicidal activity against Amaranthus viridis assessed as reduction of seed germination at 1000 ppm after 7 to 21 days by pot test; type: functional, organism-based
Fusarium sp. = assay: Antifungal activity against Fusarium sp. assessed as fungal growth (reference value: 77 mm); type: functional
Parthenium hysterophorus [6] = assay: Post-emergence herbicidal activity against Parthenium hysterophorus assessed as reduction of seed germination at 1000 ppm after 5 to 25 days by pot test; type: functional, organism-based
Digitaria sanguinalis [7] = assay: Post-emergence herbicidal activity against Digitaria sanguinalis (hairy crabgrass) assessed as reduction of seed germination at 1000 ppm after 5 to 25 days by pot test; type: functional, organism-based
Cynodon dactylon [8] = assay: Post-emergence herbicidal activity against Cynodon dactylon assessed as reduction of seed germination at 0.48 ppm after 5 to 25 days by pot test; type: functional, organism-based
Parthenium hysterophorus [9] = assay: Post-emergence herbicidal activity against Parthenium hysterophorus assessed as reduction of seed germination at 0.48 ppm after 5 to 25 days by pot test; type: functional, organism-based
Digitaria sanguinalis [10] = assay: Post-emergence herbicidal activity against Digitaria sanguinalis (hairy crabgrass) assessed as reduction of seed germination at 0.48 ppm after 5 to 25 days by pot test; type: functional, organism-based
Euphorbia hirta [11] = assay: Post-emergence herbicidal activity against Euphorbia hirta assessed as reduction of seed germination at 0.48 ppm after 5 to 25 days by pot test; type: functional, organism-based
Amaranthus viridis [12] = assay: Post-emergence herbicidal activity against Amaranthus viridis assessed as reduction of seed germination at 0.48 ppm after 5 to 25 days by pot test; type: functional, organism-based
Digitaria sanguinalis [13] = assay: Post-emergence herbicidal activity against Digitaria sanguinalis (hairy crabgrass) assessed as reduction of seed germination at 1.22 ppm after 5 to 25 days by pot test; type: functional, organism-based
Amaranthus viridis [14] = assay: Post-emergence herbicidal activity against Amaranthus viridis assessed as reduction of seed germination at 1.22 ppm after 5 to 25 days by pot test; type: functional, organism-based
Parthenium hysterophorus [15] = assay: Post-emergence herbicidal activity against Parthenium hysterophorus assessed as reduction of seed germination at 1.22 ppm after 5 to 25 days by pot test; type: functional, organism-based
Euphorbia hirta [16] = assay: Post-emergence herbicidal activity against Euphorbia hirta assessed as reduction of seed germination at 1.22 ppm after 5 to 25 days by pot test; type: functional, organism-based
Cynodon dactylon [17] = assay: Post-emergence herbicidal activity against Cynodon dactylon assessed as reduction of seed germination at 1.22 ppm after 5 to 25 days by pot test; type: functional, organism-based
Digitaria sanguinalis [18] = assay: Pre-emergence herbicidal activity against Digitaria sanguinalis (hairy crabgrass) assessed as reduction of seed germination at 1.50 ppm after 7 to 21 days by pot test; type: functional, organism-based
Amaranthus viridis [19] = assay: Pre-emergence herbicidal activity against Amaranthus viridis assessed as reduction of seed germination at 1.50 ppm after 7 to 21 days by pot test; type: functional, organism-based
Digitaria sanguinalis [20] = assay: Pre-emergence herbicidal activity against Digitaria sanguinalis (hairy crabgrass) assessed as reduction of seed germination at 1 ppm after 7 to 21 days by pot test; type: functional, organism-based
Amaranthus viridis [21] = assay: Pre-emergence herbicidal activity against Amaranthus viridis assessed as reduction of seed germination at 1 ppm after 7 to 21 days by pot test; type: functional, organism-based

SMILES	Activity (Plasmopara viticola)	Activity (Digitaria sanguinalis [1])	Activity (Cynodon dactylon [2])	Activity (Euphorbia hirta [3])	Activity (Amaranthus viridis [4])	Activity (Alternaria solani)	Activity (Amaranthus viridis [5])	Activity (Fusarium sp.)	Activity (Parthenium hysterophorus [6])	Activity (Digitaria sanguinalis [7])	further results
Fc1ccc(NCn2nc(COc3ccc(Cl)cc3Cl)n(/N=C/c3ccc(-c4ccc(Cl)cc4Cl)o3)c2=S)cc1Cl	100%	inactive	inactive	inactive	inactive	51 mm	inactive	73 mm	inactive	inactive	–
Cc1cc(OCc2nn(CNc3ccc(F)c(Cl)c3)c(=S)n2/N=C/c2ccc(-c3ccc(Cl)cc3Cl)o2)ccc1Cl	100%	inactive	inactive	inactive	inactive	49 mm	inactive	72 mm	inactive	inactive	–
C[n+]1ccc(-c2cc[n+](C)cc2)cc1	–	–	–	–	–	–	–	–	–	–	Activity (Cynodon dactylon [8]): Active; Activity (Parthenium hysterophorus [9]): Active; Activity (Digitaria sanguinalis [10]): Active; Activity (Euphorbia hirta [11]): Active; Activity (Amaranthus viridis [12]): Active
S=c1[nH]nc(COc2ccc(Cl)cc2Cl)n1/N=C/c1ccc(-c2ccc(Cl)cc2Cl)o1	100%	inactive	inactive	inactive	inactive	58 mm	inactive	80 mm	inactive	inactive	–
O=C(O)CNCP(=O)(O)O	–	–	–	–	–	–	–	–	–	–	Activity (Digitaria sanguinalis [13]): Active; Activity (Amaranthus viridis [14]): Active; Activity (Parthenium hysterophorus [15]): Active; Activity (Euphorbia hirta [16]): Active; Activity (Cynodon dactylon [17]): Active
CCNc1nc(Cl)nc(NC(C)C)n1	–	–	–	–	–	–	–	–	–	–	Activity (Digitaria sanguinalis [18]): Active; Activity (Amaranthus viridis [19]): Active
S=c1[nH]nc(COc2ccc(Cl)cc2)n1/N=C/c1ccc(-c2ccc(Cl)cc2Cl)o1	100%	inactive	inactive	inactive	inactive	60 mm	inactive	79 mm	inactive	inactive	–
Cc1cc(OCc2n[nH]c(=S)n2/N=C/c2ccc(-c3ccc(Cl)cc3Cl)o2)ccc1Cl	100%	inactive	inactive	inactive	inactive	56 mm	inactive	76 mm	inactive	inactive	–
Fc1ccc(NCn2nc(COc3ccc(Cl)cc3)n(/N=C/c3ccc(-c4ccc(Cl)cc4Cl)o3)c2=S)cc1Cl	100%	inactive	inactive	inactive	inactive	52 mm	inactive	75 mm	inactive	inactive	–
CCC(CC)Nc1c([N+](=O)[O-])cc(C)c(C)c1[N+](=O)[O-]	–	–	–	–	–	–	–	–	–	–	Activity (Digitaria sanguinalis [20]): Active; Activity (Amaranthus viridis [21]): Active
Fc1ccc(NCn2nc(COc3ccccc3Cl)n(/N=C/c3ccc(-c4ccc(Cl)cc4Cl)o3)c2=S)cc1Cl	100%	inactive	inactive	inactive	inactive	57 mm	inactive	75 mm	inactive	inactive	–
S=c1[nH]nc(COc2ccccc2Cl)n1/N=C/c1ccc(-c2ccc(Cl)cc2Cl)o1	100%	inactive	inactive	inactive	inactive	66 mm	inactive	77.5 mm	inactive	inactive	–
CCCCC(O)(Cn1cncn1)c1ccc(Cl)cc1Cl (stereo not given) [HEXACONAZOLE]	–	–	–	–	–	–	–	8 mm	–	–	–
